Earlier results on 1 compound are cited in patent US20250325531A1, “TREATMENT OF SYSTOLIC DYSFUNCTION” (MyoKardia, Inc., priority 2024, published 2025).

The test system of this series is healthy volunteers / HFrEF. Conditions: high doses; correlated with increase in SET; cited from earlier work.

With `COC(=O)N1CCN(Cc2cccc(NC(=O)Nc3ccc(C)nc3)c2F)CC1` [omecamtiv mecarbil], the “ischemia in healthy volunteers” value is on record as “resulted in ischemia”.
